Results published in patent US5733893A, “Method of identifying molecules that regulate FGF activity” (Washington University, priority 1995, dated 1998).
“Also recorded” adds a separate entry of the source.

Assays:
[1] = tested on: FGFR1-expressing BaF3 cells; experiment: bFGF mitogenic activity, 3H-thymidine incorporation into FGFR1-expressing BaF3 cells; type: cell-based; conditions: for mitogenic activity with bFGF (in words): FGFR1-expressing BaF3 cells; for Mitogenic activity: relative concentration (wt/vol.) required to incorporate 2 × 10^4 cpm 3H-thymidine into F32 cell DNA: relative to heparin (1.0), ± standard deviation; for mitogenic activity with bFGF (in words) / Mitogenic activity: relative concentration (wt/vol.) required to incorporate 2 × 10^4 cpm 3H-thymidine into F32 cell DNA: bFGF; for fold more active than SOS: FGFR1-expressing BaF3 cell growth with bFGF
From the text: This cell line was used to assay synthetic heparin/HS molecules as potential activators or inhibitors of heparin/HS-dependent mitogenesis (3).

bFGF [2] = molecular target: T1, bFGF (Homo sapiens, UniProt P09038); experiment: competition with 125I-heparin binding to bFGF; conditions: for binding to bFGF/FGF (in words): competition with 125I-heparin; for IC50: 4 nM FGF, read-out: IC50 (50% competition for 125I-heparin binding to bFGF) (converted)
T1 construct: purchased Scios Nova
T1 sequence (P09038 134-288): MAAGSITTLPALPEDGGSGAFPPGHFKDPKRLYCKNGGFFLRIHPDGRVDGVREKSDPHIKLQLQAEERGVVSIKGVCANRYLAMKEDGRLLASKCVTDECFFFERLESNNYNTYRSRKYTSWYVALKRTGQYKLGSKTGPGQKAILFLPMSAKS
Protocol: FIG. 2A: Binding of oligosaccharides to bFGF as determined by competition with ^125 I-heparin (30).
(§1) The ability of these small oligosaccharides to compete with the binding on ^125 I-heparin to FGF was also assayed. Heparin iodination was carried out by previously published procedure (30). Heparin binding to FGF was determined by incubating 4 nM FGF with ^125 I-heparin and competitor polysaccharide. Complexes were immunoprecipitated with 1:250 dilutions of monoclonal antibody DG2 (DuPont/Merck) (for bFGF) or a polyclonal antibody (for aFGF), and protein A SEPHAROSE (Sigma Chemical Co.). Washing and quantitation was carried out by procedures previously published for soluble receptor-binding assays (3).
(§2) 12. Heparin iodination was as in (30). Heparin binding to FGF was determined by incubating 4 nM FGF with ^125 I-heparin and competitor polysaccharide. Complexes were immunopredpitated with 1:250 dilutions of monoclonal antibody DG2 (for bFGF) or a polydonal antibody (for aFGF), and protein A sepharose (Sigma). Washing and quantitation was as previously described for soluble receptor binding assays (3).

[3] = tested on: FGFR1-expressing BaF3 cells; experiment: aFGF mitogenic activity, 3H-thymidine incorporation into FGFR1-expressing BaF3 cells; type: cell-based
From the text: Activation of bFGF mitogenic activity as measured by ^3 H-thymidine incorporation into FGFR1-expressing BaF3 cells treated with 150 pM bFGF and increasing concentrations of the indicated oligosaccharides is shown. FIG. 1B.
(§3) The FGFR1-expressing BaF3 cell line was used to assay synthetic heparin/HS molecules as potential activators or inhibitors of heparin/HS-dependent mitogenesis by an assay procedure published previously (3). Such cell lines, which express FGRF1, require heparin/HS and FGF for growth (3). […]
However, their potency relative to that of heparin is less than that observed with bFGF (FIG. 1B).

aFGF = experiment: competition with 125I-heparin binding to aFGF
Protocol: as §1, §2

bFGF-FRAP binding = experiment: binding of 125I-bFGF to soluble receptor FRAP in presence of oligosaccharide; conditions: oligosaccharides 2 μg/ml or increasing concentrations
Protocol: FIG. 2B: Binding of ^125 I-bFGF to FRAP (3), a soluble receptor, in the presence of the indicated oligosaccharide: *, no heparin added; heparin, 50 ng/ml; the remaining oligosaccharides (Di-1 to SOS) were added at a concentration of 2 μg/ml. FGFs were labeled by the Chloramine T method as previously described (31).
(§4) FIG. 2C: Acidic FGF binding to FRAP; FIG. 2D:, basic FGF binding to FRAP. ^125 I-FGFs were incubated with FRAP in the presence of increasing concentrations of heparin or Tri-3; Binding assays were performed as previously described (3).
as §3
Binding of bFGF to a soluble FGFR-alkaline phosphatase fusion protein (FRAP) or to a cell-surface FGFR is enhanced by heparin/HS or by heparin-derived oligosaccharides (8 to 12 sugar residues) (3,4). The ability of heparin/HS-derived di- and tri-saccharides to enhance FGF-FRAP binding in vitro was measured (3).

aFGF binding to FRAP = experiment: binding of 125I-aFGF to soluble receptor FRAP in presence of oligosaccharide; conditions: increasing concentrations
Protocol: as §4, §3

bFGF [4] = molecular target: T1, bFGF; experiment: bFGF dimerization by crosslinking and electrophoresis; type: biochemical; conditions: for induction of FGF dimers (in words): crosslinking
Protocol: 670 nM bFGF and 3×10^5 cpm ^125 I-bFGF were incubated with the indicated concentration of (μg/ml) Tri-3 or HS-16. Crosslinking and electrophoresis were performed as previously described (3). Dimer (45 kD) band intensities were quantified by scanning densitometry and plotted above each lane. Molecular weight markers (kD) are shown at the right.

FGF receptors = experiment: dimerization of FGF receptors on BaF3-FGFR1 cells by crosslinking; type: cell-based; conditions: BaF3-FGFR1 cells with FGF-2
Protocol: Binding media (DMEM/0.1% BSA) was supplemented with the indicated concentration of heparin or Tri-3.(*) 200 ng/ml unlabeled FGF-2 added to binding media; Cells were washed once with the same media used for binding, and once with PBS. Crosslinking was as described previously (27).
Crosslinked receptors were electrophoresed on a 5% SDS polyacrylamide gel under reducing condition, and visualized by autoradiography. The lower band corresponds to receptor monomers crosslinked to FGF-2. The upper band corresponds to receptor dimers crosslinked to each other and to FGF-2. Molecular weights (kD) are shown at the right.
Binding media (DMEM/0.1% BSA) was supplemented with the indicated concentration of heparin or Tri-3.(*) 200 ng/ml unlabeled FGF-2 added to binding media; Cells were washed once with the same media used for binding, and once with PBS. Crosslinking was as described previously
Crosslinked receptors were electrophoresed on a 5% SDS polyacrylamide gel under reducing condition, and visualized by autoradiography. The lower band corresponds to receptor monomers crosslinked to FGF-2. The upper band corresponds to receptor dimers crosslinked to each other and to FGF-2.

Row | Compound | binding to bFGF/FGF (in words) (bFGF [2]) | IC50 (bFGF [2]) [µM] | binding to aFGF (in words) (aFGF) | optimal concentration for dimerization activity (bFGF [4]; 670 nM bFGF) [µg/mL] | mitogenic activity with bFGF (in words) [1] | Mitogenic activity: relative concentration (wt/vol.) required to incorporate 2 × 10^4 cpm 3H-thymidine into F32 cell DNA [1] | proliferation of FGFR1-expressing BaF3 cells in the presence of aFGF (in words) [3] | enhancement of bFGF-FRAP binding (in words) (bFGF-FRAP binding) | aFGF binding to FRAP (in words) (aFGF binding to FRAP) | induction of FGF dimers (in words) (bFGF [4]) | dimerization of FGF receptors (in words) (FGF receptors) | fold more active than SOS [1] [fold] | mitogenic activity with bFGF (in words) ([1]; listed as D-4) | mitogenic activity with bFGF (in words) ([1]; listed as D-3)
1 | CO[C@@H]1O[C@H](C(=O)O)[C@@H](O[C@H]2O[C@H](CO)[C@@H](O[C@@H]3O[C@@H](C(=O)O)[C@@H](O)[C@H](O)[C@H]3O)[C@H](O)[C@H]2NC(C)=O)[C@H](O)[C@H]1O [Tri-3, α-L-IdoA-(1→4)-α-D-GlcNAc-(1→4)-β-D-GlcA-1→OMe] | bind and affinity higher than that of SOS | 9.87 | bind | 35 | active at concentrations comparable to that of heparin; also recorded: higher than expected mitogenic activity; also recorded: the most active compound tested | 3.2 | stimulate the proliferation | enhance bFGF-FRAP binding; also recorded: increases in a dose-dependent manner; also recorded: reproducibly exceeds that with heparin | increases in a dose-dependent manner | induce FGF dimers as well as higher order oligomers | dimerization of FGF receptors induced | – | – | –
2 | O=S(=O)(O)OC[C@H]1O[C@@](COS(=O)(=O)O)(O[C@H]2O[C@H](COS(=O)(=O)O)[C@@H](OS(=O)(=O)O)[C@H](OS(=O)(=O)O)[C@H]2OS(=O)(=O)O)[C@@H](OS(=O)(=O)O)[C@@H]1OS(=O)(=O)O [SOS, sucrose octasulfate, reference compound] | bind | 94.6 | bind | – | minimal biological activity | 1380.8 ± 30.6 | – | – | – | – | – | – | – | –
3 | CO[C@@H]1O[C@H](C(=O)O)[C@@H](O[C@H]2O[C@H](CO)[C@@H](O)[C@H](O)[C@H]2NC(C)=O)[C@H](O)[C@H]1O [Di-5, D-GlcNAc-(1→4)-β-D-GlcA-1→OMe] | – | – | – | – | intermediate mitogenic activity | 463.6 | – | – | – | – | – | – | – | –
4 | CO[C@@H]1O[C@H](C(=O)O)[C@@H](O[C@H]2O[C@H](CO)[C@@H](O[C@@H]3O[C@H](C(=O)O)[C@@H](O)[C@H](O)[C@H]3O)[C@H](O)[C@H]2NC(C)=O)[C@H](O)[C@H]1O [Tri-1, β-D-GlcA-(1→4)-α-D-GlcNAc-(1→4)-β-D-GlcA-1→OMe] | bind and affinity higher than that of SOS | 19.9 | bind | – | active at concentrations comparable to that of heparin; also recorded: higher than expected mitogenic activity | 1.2 ± 0.2 | stimulate the proliferation | inability of Tri-1 to enhance FGF-FRAP binding | – | – | – | – | – | –
5 | CO[C@H]1O[C@H](CO)[C@@H](O[C@@H]2O[C@@H](C(=O)O)[C@@H](O)[C@H](O)[C@H]2O)[C@H](O)[C@H]1NC(C)=O [Di-1, α-L-IdoA-(1→4)-α-D-GlcNAc-1→OMe] | – | – | – | – | no activity | – | – | – | – | – | – | – | – | –

The next lines start with results.

Row | binding to bFGF/FGF (in words) (bFGF [2]) | IC50 (bFGF [2]) [µM] | binding to aFGF (in words) (aFGF) | optimal concentration for dimerization activity (bFGF [4]; 670 nM bFGF) [µg/mL] | Compound | mitogenic activity with bFGF (in words) [1] | Mitogenic activity: relative concentration (wt/vol.) required to incorporate 2 × 10^4 cpm 3H-thymidine into F32 cell DNA [1] | proliferation of FGFR1-expressing BaF3 cells in the presence of aFGF (in words) [3] | enhancement of bFGF-FRAP binding (in words) (bFGF-FRAP binding) | aFGF binding to FRAP (in words) (aFGF binding to FRAP) | induction of FGF dimers (in words) (bFGF [4]) | dimerization of FGF receptors (in words) (FGF receptors) | fold more active than SOS [1] [fold] | mitogenic activity with bFGF (in words) ([1]; listed as D-4) | mitogenic activity with bFGF (in words) ([1]; listed as D-3)
6 | affinity less than that of SOS | – | – | – | CO[C@H]1O[C@H](CO)[C@@H](O[C@@H]2O[C@@H](C(=O)O)[C@@H](O)[C@H](O)[C@H]2O)[C@H](O)[C@H]1NS(=O)(=O)O [Di-2, α-L-IdoA-(1→4)-α-D-GlcNSO3 -1→OMe] | intermediate mitogenic activity; also recorded: higher than expected mitogenic activity | 69.5 ± 9.6 | – | – | – | – | – | – | – | –
7 | affinity less than that of SOS | – | – | – | CO[C@@H]1O[C@H](C(=O)O)[C@@H](O[C@H]2O[C@H](CO)[C@@H](O[C@@H]3O[C@@H](C(=O)O)[C@@H](O)[C@H](O)[C@H]3O)[C@H](O)[C@H]2NS(=O)(=O)O)[C@H](O)[C@H]1O [Tri-2, α-L-IdoA-(1→4)-α-D-GlcNSO3 -(1→4)-β-D-GlcA-1→OMe] | intermediate mitogenic activity; also recorded: lack of activity | 470.6 ± 25.6 | – | – | – | – | – | – | – | –
8 | bind | – | bind | – | CO[C@H]1O[C@H](CO)[C@@H](O[C@@H]2O[C@H](C(=O)O)[C@@H](O)[C@H](O)[C@H]2O)[C@H](O)[C@H]1NS(=O)(=O)O [Di-4, β-D-GlcA-(1→4)-α-D-GlcNSO3 -1→OMe] | intermediate mitogenic activity | 24.7 | – | enhance bFGF-FRAP binding | – | – | – | 55 | the most active of the disaccharides | –
9 | bind | – | bind | – | CO[C@H]1O[C@H](CO)[C@@H](O[C@@H]2O[C@H](C(=O)O)[C@@H](O)[C@H](O)[C@H]2O)[C@H](O)[C@H]1NC(C)=O [Di-3, β-D-GlcA-(1→4)-α-D-GlcNAc-1→OMe] | intermediate mitogenic activity | 26.0 | – | enhance bFGF-FRAP binding | – | induce FGF dimers as well as higher order oligomers | – | 55 | – | the most active of the disaccharides
